What all share (experiment): kinome screen (33PanQinase)
Common to all, as to assay type: biochemical

In one test the target is T1, AuroraC (Homo sapiens, UniProt Q9UQB9).
T1 construct: purchased Reaction Biology Europe GmbH (formerly ProQinase)
T1 sequence (Q9UQB9 1-309): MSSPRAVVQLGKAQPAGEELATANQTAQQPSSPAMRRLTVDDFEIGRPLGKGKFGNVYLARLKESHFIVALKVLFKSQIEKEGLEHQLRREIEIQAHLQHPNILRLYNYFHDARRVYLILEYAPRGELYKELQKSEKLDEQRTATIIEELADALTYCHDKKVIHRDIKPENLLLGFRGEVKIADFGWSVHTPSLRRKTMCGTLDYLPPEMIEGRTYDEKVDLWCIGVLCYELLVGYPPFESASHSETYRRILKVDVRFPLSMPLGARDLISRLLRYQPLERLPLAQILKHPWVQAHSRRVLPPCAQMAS
The method, then: (§1) The Kinome Screening was performed by Reaction Biology Europe GmbH (http://reactionbiology.com; Freiburg i. Br., Germany).

The target in the next test is T2, CDK5/p35NCK (Homo sapiens, UniProt Q00535).
T2 construct: purchased Reaction Biology Europe GmbH (formerly ProQinase)
How it is done:
as §1

For the next test, the target named is T3, EPHA3 (Homo sapiens, UniProt P29320).
T3 construct: purchased Reaction Biology Europe GmbH (formerly ProQinase)
T3 sequence (P29320 21-983): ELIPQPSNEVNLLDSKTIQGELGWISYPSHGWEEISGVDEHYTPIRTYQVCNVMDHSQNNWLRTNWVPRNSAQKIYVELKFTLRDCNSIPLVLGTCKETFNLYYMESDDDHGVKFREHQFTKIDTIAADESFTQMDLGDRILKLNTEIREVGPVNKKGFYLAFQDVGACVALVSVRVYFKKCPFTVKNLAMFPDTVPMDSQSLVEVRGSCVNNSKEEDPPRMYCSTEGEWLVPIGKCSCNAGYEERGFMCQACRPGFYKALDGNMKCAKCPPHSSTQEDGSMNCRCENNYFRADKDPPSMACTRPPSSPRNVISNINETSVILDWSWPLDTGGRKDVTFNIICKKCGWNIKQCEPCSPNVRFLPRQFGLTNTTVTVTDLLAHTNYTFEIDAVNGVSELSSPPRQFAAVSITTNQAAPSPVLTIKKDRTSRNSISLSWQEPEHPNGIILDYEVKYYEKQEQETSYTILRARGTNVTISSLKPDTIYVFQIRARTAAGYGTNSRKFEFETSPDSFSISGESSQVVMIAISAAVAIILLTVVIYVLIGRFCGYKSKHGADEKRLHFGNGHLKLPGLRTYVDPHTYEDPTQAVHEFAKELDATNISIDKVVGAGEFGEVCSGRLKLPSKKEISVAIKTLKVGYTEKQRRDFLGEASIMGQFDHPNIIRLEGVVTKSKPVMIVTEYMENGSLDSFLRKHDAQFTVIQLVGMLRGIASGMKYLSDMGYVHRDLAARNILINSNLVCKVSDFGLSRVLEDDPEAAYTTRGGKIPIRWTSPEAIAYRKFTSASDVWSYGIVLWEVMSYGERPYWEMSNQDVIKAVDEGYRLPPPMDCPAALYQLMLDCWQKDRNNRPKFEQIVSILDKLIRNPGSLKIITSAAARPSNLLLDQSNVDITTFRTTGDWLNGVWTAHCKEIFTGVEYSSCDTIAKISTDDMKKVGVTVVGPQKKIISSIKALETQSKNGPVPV
How it is done: as §1

Another test addresses T4, MASTL (Homo sapiens, UniProt Q96GX5).
T4 construct: purchased Reaction Biology Europe GmbH (formerly ProQinase)
T4 sequence (Q96GX5 1-879): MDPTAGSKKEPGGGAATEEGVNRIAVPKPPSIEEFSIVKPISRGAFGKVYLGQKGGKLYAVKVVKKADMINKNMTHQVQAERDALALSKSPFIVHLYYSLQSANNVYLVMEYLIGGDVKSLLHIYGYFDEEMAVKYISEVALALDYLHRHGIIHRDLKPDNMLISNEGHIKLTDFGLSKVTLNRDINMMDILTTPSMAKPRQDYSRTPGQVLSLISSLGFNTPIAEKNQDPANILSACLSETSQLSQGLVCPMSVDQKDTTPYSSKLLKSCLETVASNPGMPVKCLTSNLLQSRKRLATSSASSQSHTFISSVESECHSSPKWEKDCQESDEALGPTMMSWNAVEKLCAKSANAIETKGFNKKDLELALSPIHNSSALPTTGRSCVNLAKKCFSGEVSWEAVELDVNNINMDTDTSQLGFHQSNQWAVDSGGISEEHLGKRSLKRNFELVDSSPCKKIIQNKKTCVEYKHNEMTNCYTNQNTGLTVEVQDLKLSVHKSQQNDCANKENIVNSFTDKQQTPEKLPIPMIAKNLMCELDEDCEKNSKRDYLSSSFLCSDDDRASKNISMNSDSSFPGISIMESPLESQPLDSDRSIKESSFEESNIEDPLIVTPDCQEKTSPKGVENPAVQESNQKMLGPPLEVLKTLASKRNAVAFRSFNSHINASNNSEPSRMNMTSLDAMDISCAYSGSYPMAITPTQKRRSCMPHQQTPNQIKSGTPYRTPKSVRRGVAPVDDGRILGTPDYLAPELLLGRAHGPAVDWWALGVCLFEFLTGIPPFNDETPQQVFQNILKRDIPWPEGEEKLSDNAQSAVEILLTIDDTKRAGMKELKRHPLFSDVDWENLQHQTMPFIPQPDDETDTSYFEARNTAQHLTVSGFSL
How it is done: as §1

The next test deals with T5, PKCβ1 (Homo sapiens, UniProt P05771).
T5 construct: purchased Reaction Biology Europe GmbH (formerly ProQinase)
How it is done: as §1

In another test the target is T6, RIPK2 (Homo sapiens, UniProt O43353).
T6 construct: purchased Reaction Biology Europe GmbH (formerly ProQinase)
How it is done:
as §1

In another test the target is T7, SRMS (Homo sapiens, UniProt Q9H3Y6).
T7 construct: purchased Reaction Biology Europe GmbH (formerly ProQinase)
How it is done: as §1

The values that follow come from publication PMC11167047 (Cell Death Discovery, 2024).

T6 sequence (O43353 whole entry): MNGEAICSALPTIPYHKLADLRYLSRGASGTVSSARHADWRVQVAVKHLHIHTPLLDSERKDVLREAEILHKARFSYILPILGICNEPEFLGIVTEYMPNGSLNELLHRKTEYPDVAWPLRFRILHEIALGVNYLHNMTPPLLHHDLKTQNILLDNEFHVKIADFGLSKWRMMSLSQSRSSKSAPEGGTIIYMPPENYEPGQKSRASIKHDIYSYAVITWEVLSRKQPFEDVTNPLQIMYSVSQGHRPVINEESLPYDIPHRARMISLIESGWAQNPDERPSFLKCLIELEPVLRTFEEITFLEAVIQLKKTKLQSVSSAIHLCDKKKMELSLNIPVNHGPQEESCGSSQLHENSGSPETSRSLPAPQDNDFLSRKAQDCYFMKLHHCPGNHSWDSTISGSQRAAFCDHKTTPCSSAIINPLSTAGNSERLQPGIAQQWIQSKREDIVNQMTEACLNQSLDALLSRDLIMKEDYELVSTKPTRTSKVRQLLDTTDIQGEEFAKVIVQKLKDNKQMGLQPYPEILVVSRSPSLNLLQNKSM
T7 sequence (Q9H3Y6 whole entry): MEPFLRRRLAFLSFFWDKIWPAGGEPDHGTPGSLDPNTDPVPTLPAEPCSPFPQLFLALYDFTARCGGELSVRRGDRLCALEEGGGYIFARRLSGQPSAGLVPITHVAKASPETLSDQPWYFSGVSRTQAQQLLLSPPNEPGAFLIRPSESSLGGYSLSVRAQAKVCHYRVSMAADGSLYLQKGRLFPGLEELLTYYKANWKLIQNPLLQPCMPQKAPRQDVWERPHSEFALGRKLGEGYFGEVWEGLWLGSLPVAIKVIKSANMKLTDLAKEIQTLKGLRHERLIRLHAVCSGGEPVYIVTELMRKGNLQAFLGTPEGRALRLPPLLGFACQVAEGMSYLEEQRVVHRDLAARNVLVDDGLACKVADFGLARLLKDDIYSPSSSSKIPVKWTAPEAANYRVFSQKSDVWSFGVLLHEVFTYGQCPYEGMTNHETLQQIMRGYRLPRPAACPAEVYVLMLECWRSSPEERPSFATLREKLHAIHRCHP
T2 sequence (Q00535 whole entry): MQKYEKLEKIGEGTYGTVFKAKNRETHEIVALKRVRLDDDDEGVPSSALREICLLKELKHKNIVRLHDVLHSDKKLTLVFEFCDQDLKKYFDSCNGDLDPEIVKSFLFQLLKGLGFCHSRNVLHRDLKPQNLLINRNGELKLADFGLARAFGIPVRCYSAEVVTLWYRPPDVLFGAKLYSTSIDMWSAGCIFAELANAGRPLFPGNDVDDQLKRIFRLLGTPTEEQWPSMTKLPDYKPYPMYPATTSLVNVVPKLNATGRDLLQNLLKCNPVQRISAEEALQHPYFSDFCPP
T2 sequence (Q15078 whole entry partner): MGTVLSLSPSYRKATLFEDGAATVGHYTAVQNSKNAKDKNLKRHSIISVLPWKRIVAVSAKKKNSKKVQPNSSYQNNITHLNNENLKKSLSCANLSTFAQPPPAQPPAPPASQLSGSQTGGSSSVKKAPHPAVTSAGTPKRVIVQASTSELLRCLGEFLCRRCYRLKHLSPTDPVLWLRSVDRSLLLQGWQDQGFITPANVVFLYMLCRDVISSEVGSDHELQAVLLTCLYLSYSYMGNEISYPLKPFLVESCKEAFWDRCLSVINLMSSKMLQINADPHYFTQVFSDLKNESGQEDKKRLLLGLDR
T5 sequence (P05771 whole entry): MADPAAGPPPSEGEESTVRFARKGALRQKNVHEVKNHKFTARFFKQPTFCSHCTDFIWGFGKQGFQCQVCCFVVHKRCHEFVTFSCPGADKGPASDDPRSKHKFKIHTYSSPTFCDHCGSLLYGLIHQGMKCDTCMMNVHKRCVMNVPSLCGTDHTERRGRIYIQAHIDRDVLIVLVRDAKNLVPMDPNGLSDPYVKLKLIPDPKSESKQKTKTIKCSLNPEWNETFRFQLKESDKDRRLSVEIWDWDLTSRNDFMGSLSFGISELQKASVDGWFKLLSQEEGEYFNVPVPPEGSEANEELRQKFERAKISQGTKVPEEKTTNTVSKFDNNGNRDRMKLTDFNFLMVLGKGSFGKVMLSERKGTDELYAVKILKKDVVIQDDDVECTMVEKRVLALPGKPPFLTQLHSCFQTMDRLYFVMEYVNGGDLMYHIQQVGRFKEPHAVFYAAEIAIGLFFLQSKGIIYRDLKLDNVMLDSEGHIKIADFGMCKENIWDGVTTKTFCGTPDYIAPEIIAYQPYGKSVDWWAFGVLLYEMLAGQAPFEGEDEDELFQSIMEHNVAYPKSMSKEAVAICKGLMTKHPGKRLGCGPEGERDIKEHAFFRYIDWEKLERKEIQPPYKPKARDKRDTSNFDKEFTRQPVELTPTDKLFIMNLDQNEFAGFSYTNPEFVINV

As to `c1ccc(CNc2cc(-c3c[nH]c4ncccc34)ccn2)cc1` [meriolin 36], the residual kinase activity on AuroraC (0.3 µM) is 76 % of control; on AuroraC (3 µM) it was 41 % of control; at CDK5/p35NCK (0.3 µM) it was 0 % of control; on CDK5/p35NCK (3 µM), 0 % of control; on EPHA3 (0.3 µM), 111 % of control; at EPHA3 (3 µM) it was 103 % of control. Besides, the residual kinase activity at MASTL (0.3 µM) is on record as 64 % of control; on MASTL (3 µM) it was 26 % of control; on PKCβ1 (0.3 µM), 53 % of control; at PKCβ1 (3 µM), 9 % of control; on RIPK2 (0.3 µM), 61 % of control; on RIPK2 (3 µM), 33 % of control. The residual kinase activity is 93 % of control at SRMS (0.3 µM) and 73 % of control on SRMS (3 µM).
Turning to `COc1ccnc2[nH]cc(-c3cc(N)nc(N)c3)c12` [meriolin 16], the residual kinase activity is on record as 104 % of control on AuroraC (0.03 µM); 95 % of control on AuroraC (0.3 µM); 7 % of control at CDK5/p35NCK (0.03 µM); 1 % of control on CDK5/p35NCK (0.3 µM); 102 % of control on EPHA3 (0.03 µM); 94 % of control at EPHA3 (0.3 µM). Moreover, the residual kinase activity at MASTL (0.03 µM) was 87 % of control; on MASTL (0.3 µM), 56 % of control; at PKCβ1 (0.03 µM) it was 103 % of control; at PKCβ1 (0.3 µM), 50 % of control; at RIPK2 (0.03 µM), 95 % of control; at RIPK2 (0.3 µM), 78 % of control. Further, the residual kinase activity is 101 % of control at SRMS (0.03 µM) and 93 % of control on SRMS (0.3 µM).
